This note sets out measurements from ChEMBL document CHEMBL4229343, “Perfluoroarene-based peptide macrocycles that inhibit the Nrf2/Keap1 interaction” (Bioorg Med Chem Lett, 2018).

*1 amine or outer side, *2 acyl side, *3 side chain or, on linkers, in order; H or OH if unused. Where a SMILES comes first, the peptide text is derived from it. Bridges are numbered along the chain shown (N, C = ends). C6F4(1,4-diyl) = Fc1c(F)c([*:2])c(F)c(F)c1[*:1]

In general, Ki refers to the equilibrium dissociation constant of an inhibitor or competing ligand from its target. A low value points to higher affinity.

One data set has as its system THP-1. Kind of data set: Antiproliferative activity against human THP1 cells. The format is cell-based.
On to `CC(=O)N[C@H]1CSc2c(F)c(F)c(c(F)c2F)SC[C@@H](C(N)=O)NC(=O)[C@H](CCC(=O)O)NC(=O)CNC(=O)[C@H]([C@@H](C)O)NC(=O)[C@H](CCC(=O)O)NC(=O)[C@@H]2CCCN2C(=O)[C@H](CC(=O)O)NC1=O`, for which the Activity result is listed as “Non-Toxic”.
Regarding `CC(=O)N[C@H]1CSSC[C@@H](C(N)=O)NC(=O)[C@H](CCC(=O)O)NC(=O)CNC(=O)[C@H]([C@@H](C)O)NC(=O)[C@H](CCC(=O)O)NC(=O)[C@H](CCC(=O)O)NC(=O)[C@H](CC(=O)O)NC1=O` (Ac-CDEETGEC-NH2; disulfide 1-8), the Activity entry was “Non-Toxic”.
Still for that read-out and setting: to `CC(=O)N[C@H]1CSSC[C@@H](C(=O)O)NC(=O)[C@H](CCC(=O)O)NC(=O)CNC(=O)[C@H]([C@@H](C)O)NC(=O)[C@H](CCC(=O)O)NC(=O)[C@H](CCC(=O)O)NC(=O)[C@H](CC(=O)O)NC1=O` (Ac-CDEETGEC-OH; disulfide 1-8) belongs “Non-Toxic”.
With `CC(=O)N[C@H]1CSSC[C@@H](C(N)=O)NC(=O)CNC(=O)[C@H]([C@@H](C)O)NC(=O)[C@H](CCC(=O)O)NC(=O)[C@H](CCC(=O)O)NC1=O` (Ac-CEETGC-NH2; disulfide 1-6), the Activity entry was “Non-Toxic”.
Still for that read-out and setting: to `CC(=O)N[C@H]1CSSC[C@@H](C(N)=O)NC(=O)[C@H](Cc2ccccc2)NC(=O)[C@H](CCC(=O)O)NC(=O)CNC(=O)[C@H]([C@@H](C)O)NC(=O)[C@H](CCC(=O)O)NC(=O)[C@H](CCC(=O)O)NC(=O)[C@H](CC(=O)O)NC(=O)[C@H](CC(C)C)NC1=O` (Ac-CLDEETGEFC-NH2; disulfide 1-10) belongs “Non-Toxic”; to `CC(=O)N[C@H]1CSc2c(F)c(F)c(c(F)c2F)SC[C@@H](C(N)=O)NC(=O)[C@H](Cc2ccccc2)NC(=O)[C@H](CCC(=O)O)NC(=O)CNC(=O)[C@H]([C@@H](C)O)NC(=O)[C@H](CCC(=O)O)NC(=O)[C@@H]2CCCN2C(=O)[C@H](CC(=O)O)NC(=O)[C@H](CC(C)C)NC1=O` (Ac-CLDPETGEFC-NH2; linker 1-10 via C6F4(1,4-diyl)), “Non-Toxic”; to `C[C@@H](O)[C@@H]1NC(=O)[C@H](CCC(=O)O)NC(=O)[C@H](CCC(=O)O)NC(=O)[C@H](CC(=O)O)NC(=O)[C@@H](N)CSSC[C@@H](C(N)=O)NC(=O)[C@H](CCC(=O)O)NC(=O)CNC1=O` (H-CDEETGEC-NH2; disulfide 1-8), “Non-Toxic”.

The target in another data set is Kelch-like ECH-associated protein 1 (Homo sapiens, UniProt Q14145). Nature of the data set: Displacement of F-14 from Keap1 Kelch domain (unknown origin) expressed in Escherichia coli BL21 (DE3) after 15 mins by fluorescence polarization assay.
Kelch-like ECH-associated protein 1, sequence (Q14145 whole entry, the tested form may be a part): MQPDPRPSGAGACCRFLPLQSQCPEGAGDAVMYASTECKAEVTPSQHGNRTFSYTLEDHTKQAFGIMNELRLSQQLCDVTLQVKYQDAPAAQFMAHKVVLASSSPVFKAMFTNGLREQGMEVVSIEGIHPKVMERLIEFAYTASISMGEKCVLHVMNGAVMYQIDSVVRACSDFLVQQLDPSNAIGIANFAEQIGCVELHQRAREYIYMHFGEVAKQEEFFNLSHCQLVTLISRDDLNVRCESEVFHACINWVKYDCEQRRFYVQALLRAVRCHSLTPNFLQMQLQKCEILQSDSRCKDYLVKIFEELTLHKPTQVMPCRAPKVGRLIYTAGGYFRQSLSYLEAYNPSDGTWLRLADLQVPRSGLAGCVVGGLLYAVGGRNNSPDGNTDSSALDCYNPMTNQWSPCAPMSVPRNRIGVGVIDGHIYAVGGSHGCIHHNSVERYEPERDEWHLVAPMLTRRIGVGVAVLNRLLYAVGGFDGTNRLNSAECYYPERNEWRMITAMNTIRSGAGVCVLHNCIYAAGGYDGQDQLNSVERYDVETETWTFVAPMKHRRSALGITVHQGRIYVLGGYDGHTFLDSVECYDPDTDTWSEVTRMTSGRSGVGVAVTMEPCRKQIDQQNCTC
As to `CC(=O)N[C@H]1CSSC[C@@H](C(N)=O)NC(=O)CNC(=O)[C@H]([C@@H](C)O)NC(=O)[C@H](CCC(=O)O)NC(=O)[C@H](CCC(=O)O)NC1=O` (Ac-CEETGC-NH2; disulfide 1-6), affinity was put at a Ki of 151 µM.
